Data from patent US20260015325A1, “ALKOXY HETEROARYL- CARBOXAMIDE OR THIOAMIDE COMPOUNDS” (SYNGENTA CROP PROTECTION AG, priority 2022, published 2026).

Columns and labels:
Type in all cases: in vivo
[1] = tested on: Myzus persicae (Green Peach Aphid); test: Myzus persicae (Green Peach Aphid): feeding/contact activity, sunflower leaf discs; details: foliar, 144 h, application rate of 200 ppm, mixed ages on sprayed sunflower leaf discs, 6 days after infestation, read-out: mortality
Protocol: Example B6: Myzus persicae (Green Peach Aphid): Feeding/Contact Activity
Sunflower leaf discs were placed onto agar in a 24-well microtiter plate and sprayed with aqueous test solutions prepared from 10′000 ppm DMSO stock solutions. After drying, the leaf discs were infested with an aphid population of mixed ages. The samples were assessed for mortality 6 days after infestation.

[2] = tested on: Myzus persicae (Green Peach Aphid); test: Myzus persicae (Green Peach Aphid): intrinsic activity, sucrose solution; details: 120 h, test rate of 12 ppm, intrinsic, mixed with sucrose solution under Parafilm, 5 days after infestation, read-out: mortality
Text: Example B8: Myzus persicae (Green Peach Aphid). Intrinsic Activity
Test compounds prepared from 10′000 ppm DMSO stock solutions were applied by pipette into 24-well microtiter plates and mixed with sucrose solution. The plates were closed with a stretched Parafilm. A plastic stencil with 24 holes was placed onto the plate and infested pea seedlings were placed directly on the Parafilm. The infested plate was closed with a gel blotting paper and another plastic stencil and then turned upside down. The samples were assessed for mortality 5 days after infestation.

[3] = tested on: Tetranychus urticae (Two-Spotted Spider Mite); test: whole plant or invertebrate; details: foliar, 192 h, application rate of 200 ppm, mixed population (mobile stages) on sprayed bean leaf discs, 8 days after infestation, read-out: mortality
Protocol: Example B11: Tetranychus urticae (Two-Spotted Spider Mite): Feeding/Contact Activity
Bean leaf discs on agar in 24-well microtiter plates were sprayed with aqueous test solutions prepared from 10′000 ppm DMSO stock solutions. After drying the leaf discs were infested with a mite population of mixed ages. The samples were assessed for mortality on mixed population (mobile stages) 8 days after infestation.

[4] = tested on: Bemisia tabaci (Cotton White Fly); test: Bemisia tabaci (Cotton White Fly): feeding/contact activity, cotton leaf discs; details: foliar, 144 h, application rate of 200 ppm, adult white flies on sprayed cotton leaf discs, 6 days after incubation, read-out: mortality
Protocol: Example B1: Bemisia tabaci (Cotton White Fly): Feeding/Contact Activity
Cotton leaf discs were placed on agar in 24-well microtiter plates and sprayed with aqueous test solutions prepared from 10′000 ppm DMSO stock solutions. After drying the leaf discs were infested with adult white flies. The samples were checked for mortality 6 days after incubation.

## C[C@@H](COc1cnc(Cl)c(C(=O)NC2CC2)c1)NS(=O)(=O)C(Cl)Cl [Compound P-4, 2-chloro-N-cyclopropyl-5-[(2S)-2-(dichloromethylsulfonylamino)propoxy]pyridine-3-carboxamide]
[1]
  mortality at 200 ppm: ≥ 80%
[2]
  mortality at 12 ppm: ≥ 80%
[3]
  mortality at 200 ppm: ≥ 80%

## C[C@@H](COc1cnc(Cl)c(C(=O)NC(C)(C)C)c1)NS(=O)(=O)C(F)(F)F [Compound P-11, N-tert-butyl-2-chloro-5-[(2S)-2-(trifluoromethylsulfonylamino)propoxy]pyridine-3-carboxamide]
[1]
  mortality at 200 ppm: ≥ 80%
[2]
  mortality at 12 ppm: ≥ 80%
[3]
  mortality at 200 ppm: ≥ 80%

## C[C@@H](COc1cnc(Cl)c(C(=O)Nc2ncc(C#N)cc2F)c1)NS(=O)(=O)C(F)(F)F [Compound P-18, 2-chloro-N-(5-cyano-3-fluoro-2-pyridyl)-5-[(2S)-2-(trifluoromethylsulfonylamino)propoxy]pyridine-3-carboxamide]
[3]
  mortality at 200 ppm: ≥ 80%

## C[C@@H](COc1cnc(Cl)c(C(=O)Nc2ncc(Cl)cc2F)c1)NS(=O)(=O)C(F)(F)F [Compound P-19, 2-chloro-N-(5-chloro-3-fluoro-2-pyridyl)-5-[(2S)-2-(trifluoromethylsulfonylamino)propoxy]pyridine-3-carboxamide]
[2]
  mortality at 12 ppm: ≥ 80%

## C[C@@H](COc1cnc(Cl)c(C(=O)Nc2ccc(S(C)(=O)=O)cc2F)c1)NS(=O)(=O)C(F)(F)F [Compound P-24, 2-chloro-N-(2-fluoro-4-methylsulfonyl-phenyl)-5-[(2S)-2-(trifluoromethylsulfonylamino)propoxy]pyridine-3-carboxamide]
[3]
  mortality at 200 ppm: ≥ 80%

## Cc1ncc(OC[C@H](C)NS(=O)(=O)C(F)(F)F)cc1C(=O)NC(C)C1CC1 (stereo partly drawn) [Compound P-31, N-(1-cyclopropylethyl)-2-methyl-5-[(2S)-2-(trifluoromethylsulfonylamino)propoxy]pyridine-3-carboxamide]
[4]
  mortality at 200 ppm: ≥ 80%
[3]
  mortality at 200 ppm: ≥ 80%

## Cc1ncc(OC[C@H](C)NS(=O)(=O)C(F)(F)F)cc1C(=O)NCc1ncccc1Cl [Compound P-32, N-[(3-chloro-2-pyridyl)methyl]-2-methyl-5-[(2S)-2-(trifluoromethylsulfonylamino)propoxy]pyridine-3-carboxamide]
[1]
  mortality at 200 ppm: ≥ 80%
[3]
  mortality at 200 ppm: ≥ 80%

## Cc1ncc(OC[C@H](C)NS(=O)(=O)C(F)(F)F)cc1C(=O)Nc1ccc(F)cc1F [Compound P-33, N-(2,4-difluorophenyl)-2-methyl-5-[(2S)-2-(trifluoromethylsulfonylamino)propoxy]pyridine-3-carboxamide]
[3]
  mortality at 200 ppm: ≥ 80%

## Cc1ncc(OC[C@H](C)NS(=O)(=O)C(F)(F)F)cc1C(=O)NC1CC(F)(F)C1 [Compound P-37, N-(3,3-difluorocyclobutyl)-2-methyl-5-[(2S)-2-(trifluoromethylsulfonylamino)propoxy]pyridine-3-carboxamide]
[3]
  mortality at 200 ppm: ≥ 80%

## Cc1ncc(OC[C@H](C)NS(=O)(=O)C(F)(F)F)cc1C(=O)NCC(F)F [Compound P-39, N-(2,2-difluoroethyl)-2-methyl-5-[(2S)-2-(trifluoromethylsulfonylamino)propoxy]pyridine-3-carboxamide]
[3]
  mortality at 200 ppm: ≥ 80%

## C[C@@H](COc1cnc(Cl)c(C(=O)NCc2ccccc2)c1)NS(=O)(=O)C(F)(F)F [Compound P-44, N-benzyl-2-chloro-5-[(2S)-2-(trifluoromethylsulfonylamino)propoxy]pyridine-3-carboxamide]
[3]
  mortality at 200 ppm: ≥ 80%

## CC(NC(=O)c1cc(OC[C@H](C)NS(=O)(=O)C(F)(F)F)cnc1Cl)C1CC1 (stereo partly drawn) [Compound P-45, 2-chloro-N-(1-cyclopropylethyl)-5-[(2S)-2-(trifluoromethylsulfonylamino)propoxy]pyridine-3-carboxamide]
[1]
  mortality at 200 ppm: ≥ 80%
[2]
  mortality at 12 ppm: ≥ 80%
[3]
  mortality at 200 ppm: ≥ 80%

## C[C@@H](COc1cnc(Cl)c(C(=O)NCC2(C#N)CC2)c1)NS(=O)(=O)C(F)(F)F [Compound P-46, 2-chloro-N-[(1-cyanocyclopropyl)methyl]-5-[(2S)-2-(trifluoromethylsulfonylamino)propoxy]pyridine-3-carboxamide]
[4]
  mortality at 200 ppm: ≥ 80%
[1]
  mortality at 200 ppm: ≥ 80%

## CCN1OC[C@H](NC(=O)c2cc(OC[C@H](C)NS(=O)(=O)C(F)(F)F)cnc2Cl)C1=O [Compound P-49, 2-chloro-N-[(4S)-2-ethyl-3-oxo-isoxazolidin-4-yl]-5-[(2S)-2-(trifluoromethylsulfonylamino)propoxy]pyridine-3-carboxamide]
[1]
  mortality at 200 ppm: ≥ 80%
[3]
  mortality at 200 ppm: ≥ 80%

## C[C@@H](COc1cnc(Cl)c(C(=O)NC2(C)CCOC2)c1)NS(=O)(=O)C(F)(F)F (stereo partly drawn) [Compound P-51, 2-chloro-N-(3-methyltetrahydrofuran-3-yl)-5-[(2S)-2-(trifluoromethylsulfonylamino)propoxy]pyridine-3-carboxamide]
[3]
  mortality at 200 ppm: ≥ 80%

## C#CCNC(=O)c1cc(OC[C@H](C)NS(=O)(=O)C(F)(F)F)cnc1Cl [Compound P-52, 2-chloro-N-prop-2-ynyl-5-[(2S)-2-(trifluoromethylsulfonylamino)propoxy]pyridine-3-carboxamide]
[4]
  mortality at 200 ppm: ≥ 80%
[1]
  mortality at 200 ppm: ≥ 80%
[3]
  mortality at 200 ppm: ≥ 80%

## C[C@@H](COc1cnc(Cl)c(C(=O)NCC(F)F)c1)NS(=O)(=O)C(F)(F)F [Compound P-55, 2-chloro-N-(2,2-difluoroethyl)-5-[(2S)-2-(trifluoromethylsulfonylamino)propoxy]pyridine-3-carboxamide]
[1]
  mortality at 200 ppm: ≥ 80%
[2]
  mortality at 12 ppm: ≥ 80%

## C[C@@H](COc1cnc(Cl)c(C(=O)Nc2ccccc2)c1)NS(=O)(=O)C(F)(F)F [Compound P-56, 2-chloro-N-phenyl-5-[(2S)-2-(trifluoromethylsulfonylamino)propoxy]pyridine-3-carboxamide]
[4]
  mortality at 200 ppm: ≥ 80%
[3]
  mortality at 200 ppm: ≥ 80%

## Cc1cnc(OC[C@H](C)NS(=O)(=O)C(F)(F)F)cc1C(=O)NC1CCN(CC(F)(F)F)C1=O (stereo partly drawn) [Compound P-70, 5-methyl-N-[2-oxo-1-(2,2,2-trifluoroethyl)pyrrolidin-3-yl]-2-[(2S)-2-(trifluoromethylsulfonylamino)propoxy]pyridine-4-carboxamide]
[4]
  mortality at 200 ppm: ≥ 80%
[1]
  mortality at 200 ppm: ≥ 80%

## Cc1cnc(OC[C@H](C)NS(=O)(=O)C(F)(F)F)cc1C(=O)NCc1ccccc1 [Compound P-77, N-benzyl-5-methyl-2-[(2S)-2-(trifluoromethylsulfonylamino)propoxy]pyridine-4-carboxamide]
[3]
  mortality at 200 ppm: ≥ 80%

## CCN1OC[C@@H](NC(=O)c2cc(OC[C@H](C)N(COC)S(=O)(=O)C(F)(F)F)ncc2C)C1=O [Compound P-78, N-[(4R)-2-ethyl-3-oxo-isoxazolidin-4-yl]-2-[(2S)-2-[methoxymethyl(trifluoromethylsulfonyl)amino]propoxy]-5-methyl-pyridine-4-carboxamide]
[1]
  mortality at 200 ppm: ≥ 80%
[3]
  mortality at 200 ppm: ≥ 80%

## COCN([C@@H](C)COc1cc(C(=O)NC2(C#N)CC2)c(C)cn1)S(=O)(=O)C(F)(F)F [Compound P-79, N-(1-cyanocyclopropyl)-2-[(2S)-2-[methoxymethyl(trifluoromethylsulfonyl)amino]propoxy]-5-methyl-pyridine-4-carboxamide]
[3]
  mortality at 200 ppm: ≥ 80%

## Cc1cnc(OC[C@H](C)NS(=O)(=O)C(F)(F)F)cc1C(=O)NCC(F)(F)F [Compound P-80, 5-methyl-N-(2,2,2-trifluoroethyl)-2-[(2S)-2-(trifluoromethylsulfonylamino)propoxy]pyridine-4-carboxamide]
[3]
  mortality at 200 ppm: ≥ 80%

## COCN([C@@H](C)COc1cc(C(=O)NC2CC2)c(Br)cn1)S(=O)(=O)C(F)(F)F [Compound P-81, 5-bromo-N-cyclopropyl-2-[(2S)-2-[methoxymethyl(trifluoromethylsulfonyl)amino]propoxy]pyridine-4-carboxamide]
[2]
  mortality at 12 ppm: ≥ 80%

## COCN([C@@H](C)COc1cc(C(=O)NC2(C#N)CC2)c(Br)cn1)S(=O)(=O)C(F)(F)F [Compound P-82, 5-bromo-N-(1-cyanocyclopropyl)-2-[(2S)-2-[methoxymethyl(trifluoromethylsulfonyl)amino]propoxy]pyridine-4-carboxamide]
[4]
  mortality at 200 ppm: ≥ 80%
[3]
  mortality at 200 ppm: ≥ 80%

## C[C@@H](COc1cc(C(=O)NC2(C#N)CC2)c(Br)cn1)NS(=O)(=O)C(F)(F)F [Compound P-86, 5-bromo-N-(1-cyanocyclopropyl)-2-[(2S)-2-(trifluoromethylsulfonylamino)propoxy]pyridine-4-carboxamide]
[4]
  mortality at 200 ppm: ≥ 80%

## C[C@@H](COc1cc(C(=O)NC2CC2)c(Cl)cn1)NS(=O)(=O)C(F)(F)F [Compound P-87, 5-chloro-N-cyclopropyl-2-[(2S)-2-(trifluoromethylsulfonylamino)propoxy]pyridine-4-carboxamide]
[1]
  mortality at 200 ppm: ≥ 80%
[2]
  mortality at 12 ppm: ≥ 80%
[3]
  mortality at 200 ppm: ≥ 80%
